Assay results reported in PMC11903733 (Frontiers in Pharmacology, 2025).

Key:
[1] = target: T1, LSD1 (Homo sapiens, UniProt O60341); experiment: Lance Ultra LSD1 demethylase TR-FRET enzyme inhibition assay; format: biochemical; details: recombinant human LSD1 (172–852 aa) 2 nM, Bio-H3K4me2 substrate, 1 h, TR-FRET; mean ± SD, n = 3
T1 construct: Recombinant human LSD1 (172–852 aa); by word order LSD1 from Sino Biological
From the text: These were utilized in both in vitro and in vivo assays. Iscove’s Modified Dulbecco’s Medium (IMDM), Roswell Park Memorial Institute (RPMI)-1640 medium, fetal bovine serum (FBS) and penicillin/streptomycin were purchased from Gibco (Grand Island, New Nork, United States). Recombinant human LSD1 (172–852 aa) and full-length LSD2 were obtained from Sino Biological Inc. and ActiveMotif.
The inhibitory effects of the tested compounds on LSD1 and LSD2 enzymes were methodically assessed using the Lance Ultra LSD1 Histone H3-Lysine 4 Demethylase Assay Kit from PerkinElmer, adhering to previously published methodologies ([Li et al., 2022]). In brief, the reaction was initiated by adding 4 μL of enzyme solution, with concentrations specified at 2 nM for LSD1 or 172 nM for LSD2, 4 μL of substrate solution [2.5 μM Bio-H3K4me2 ([…])], and 2 μL of tested compound to a Tris buffer (50 mM Tris-HCl, 50 mM NaCl, 0.01% Tween 20, 1 mM DTT, 10 μM FAD, 10% glycerol, pH 9.0) at room temperature and incubated for 1 h. Following the incubation, 5 μL of a detection mixture, comprising an Eu-labeled H3K4me0 antibody and ULight Streptavidin, was added to the reaction. The fluorescence intensity was then measured employing TR-FRET mode with excitation and emission wavelengths set at 320 nm and 665 nm, respectively, utilizing the Envision (PerkinElmer) system. Each experiment was performed in triplicate.

[2] = Toxicity in xenografted mice: body weight, serum liver and kidney indices; format: in vivo, BALB/c nude mice
From the text: Given the potent inhibitory effect of LTM-1 on MV-4-11 cell proliferation in vitro, a previously reported xenograft animal model was established to measure the anti-tumor growth and development effects of LTM-1 ([Zhou et al., 2022]). The animal experimental design of this study was reviewed and confirmed by the Ethics Committee of China Pharmaceutical University. The experimental procedures complied with the ARRIVE guidelines (https://arriveguidelines.org/). Female BALB/c nude mice aged 4–6 weeks were purchased from Changzhou Cave Animal Co., Ltd. (Changzhou, China). Mice were housed in a specific pathogen-free (SPF) environment, where the temperature was precisely regulated to 25°C ± 2°C, the relative humidity was kept at 50% ± 5%, and a strict 12-h light-dark cycle was maintained. A 200 μL suspension of MV-4-11 cells (1 × 10^6 cells) was injected subcutaneously into the mice. […] The mice were administered drugs via intraperitoneal injection daily, with a total treatment period of 15 days. Mouse weight and tumor volume were measured every 3 days. The tumor volume was calculated using the formula (c × c × d)/2 (where c represents the smallest diameter, and d represents the largest diameter). When the animals could no longer access food and/or the average tumor diameter exceeded 15 mm, the mice were anesthetized with 2.5% isoflurane and euthanized by cervical dislocation to minimize suffering. In addition, the liver and kidney index levels were measured using an automatic biochemical analyzer to evaluate the toxic effects of LTM-1 on mice.

[3] = target: 60 different kinases; experiment: SelectScreen kinase profiling, whole panel; format: biochemical; details: ten-point dilution 0.25 μM to 128 μM; read-out: IC50 against each of the 60 evaluated kinases
Protocol: (§1) The kinase selectivity analysis of LTM-1 was performed utilizing the SelectScreen Kinase Profiling Service offered by Thermo Fisher Scientific. In a dose-response assay featuring a ten-point dilution series from 0.25 μM to 128 μM, the inhibitory effects of LTM-1 on substrate phosphorylation reactions catalyzed by a panel of kinases were assessed. Consequently, the half-maximal inhibitory concentrations (IC50 values) for each kinase were determined.

[4] = target: CDK19 (Homo sapiens, UniProt Q9BWU1); experiment: SelectScreen kinase profiling; format: biochemical
Protocol: as §1

[5] = target: DDR2 (Homo sapiens, UniProt Q16832); experiment: SelectScreen kinase profiling; format: biochemical
Protocol: as §1

[6] = target: FES (Homo sapiens, UniProt P07332); experiment: SelectScreen kinase profiling; format: biochemical
Protocol: as §1

[7] = target: FGFR2 (Homo sapiens, UniProt P21802); experiment: SelectScreen kinase profiling; format: biochemical
Protocol: as §1

[8] = target: FGFR4 (Homo sapiens, UniProt P22455); experiment: SelectScreen kinase profiling; format: biochemical
Protocol: as §1

[9] = target: JAK1 (Homo sapiens, UniProt P23458); experiment: SelectScreen kinase profiling; format: biochemical
Protocol: as §1

[10] = target: MST1R (Homo sapiens, UniProt Q04912); experiment: SelectScreen kinase profiling; format: biochemical
Protocol: as §1

[11] = target: NTRK3 (Homo sapiens, UniProt Q16288); experiment: SelectScreen kinase profiling; format: biochemical
Protocol: as §1

[12] = target: PLK1 (Homo sapiens, UniProt P53350); experiment: SelectScreen kinase profiling; format: biochemical
Protocol: as §1

[13] = target: PTK2 (Homo sapiens, UniProt Q05397); experiment: SelectScreen kinase profiling; format: biochemical
Protocol: as §1

[14] = compared to the vehicle control group

Sequence of FES (P07332 whole entry): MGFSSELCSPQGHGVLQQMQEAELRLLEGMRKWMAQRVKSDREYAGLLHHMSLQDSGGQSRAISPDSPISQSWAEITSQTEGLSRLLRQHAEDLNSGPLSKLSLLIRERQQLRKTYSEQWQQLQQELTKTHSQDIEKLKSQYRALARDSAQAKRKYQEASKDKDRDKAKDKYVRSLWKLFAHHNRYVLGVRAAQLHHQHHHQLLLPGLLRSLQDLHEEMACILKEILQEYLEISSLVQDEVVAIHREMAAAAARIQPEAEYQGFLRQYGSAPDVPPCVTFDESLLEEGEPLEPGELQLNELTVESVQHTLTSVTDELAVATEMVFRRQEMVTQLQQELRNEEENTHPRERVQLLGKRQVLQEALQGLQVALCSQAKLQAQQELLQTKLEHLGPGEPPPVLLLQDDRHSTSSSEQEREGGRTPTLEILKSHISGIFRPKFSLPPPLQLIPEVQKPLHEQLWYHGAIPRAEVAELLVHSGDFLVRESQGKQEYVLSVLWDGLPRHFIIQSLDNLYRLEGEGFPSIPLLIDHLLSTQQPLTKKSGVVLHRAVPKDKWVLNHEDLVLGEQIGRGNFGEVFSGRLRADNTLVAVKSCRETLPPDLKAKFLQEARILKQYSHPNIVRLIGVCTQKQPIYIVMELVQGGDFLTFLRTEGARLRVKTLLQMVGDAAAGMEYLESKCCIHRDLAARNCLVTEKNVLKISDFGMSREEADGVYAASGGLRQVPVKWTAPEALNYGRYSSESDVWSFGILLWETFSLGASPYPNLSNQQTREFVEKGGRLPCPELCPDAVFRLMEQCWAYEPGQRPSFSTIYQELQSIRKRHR
Sequence of NTRK3 (Q16288 32-839): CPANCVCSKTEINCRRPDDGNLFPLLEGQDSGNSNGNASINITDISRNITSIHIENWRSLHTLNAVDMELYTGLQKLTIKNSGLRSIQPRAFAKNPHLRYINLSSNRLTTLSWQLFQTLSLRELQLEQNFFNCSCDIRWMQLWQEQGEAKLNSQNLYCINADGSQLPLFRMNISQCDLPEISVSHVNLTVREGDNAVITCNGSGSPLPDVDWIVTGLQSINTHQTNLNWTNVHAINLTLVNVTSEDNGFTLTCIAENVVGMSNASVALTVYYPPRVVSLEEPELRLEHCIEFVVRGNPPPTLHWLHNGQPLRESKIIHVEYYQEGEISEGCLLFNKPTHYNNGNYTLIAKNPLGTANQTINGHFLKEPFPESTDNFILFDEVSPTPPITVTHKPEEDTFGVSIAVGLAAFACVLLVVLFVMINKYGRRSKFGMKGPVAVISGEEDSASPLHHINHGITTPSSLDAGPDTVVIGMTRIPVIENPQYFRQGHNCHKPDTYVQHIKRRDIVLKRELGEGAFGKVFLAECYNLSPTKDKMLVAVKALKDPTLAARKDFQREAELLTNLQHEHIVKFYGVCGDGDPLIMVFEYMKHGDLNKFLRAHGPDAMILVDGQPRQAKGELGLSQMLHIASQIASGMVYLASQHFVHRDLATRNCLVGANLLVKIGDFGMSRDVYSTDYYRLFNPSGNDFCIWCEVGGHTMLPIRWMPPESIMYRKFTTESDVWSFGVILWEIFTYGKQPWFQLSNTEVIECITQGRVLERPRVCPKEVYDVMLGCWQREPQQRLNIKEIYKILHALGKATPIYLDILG
Sequence of FGFR2 (P21802 22-821): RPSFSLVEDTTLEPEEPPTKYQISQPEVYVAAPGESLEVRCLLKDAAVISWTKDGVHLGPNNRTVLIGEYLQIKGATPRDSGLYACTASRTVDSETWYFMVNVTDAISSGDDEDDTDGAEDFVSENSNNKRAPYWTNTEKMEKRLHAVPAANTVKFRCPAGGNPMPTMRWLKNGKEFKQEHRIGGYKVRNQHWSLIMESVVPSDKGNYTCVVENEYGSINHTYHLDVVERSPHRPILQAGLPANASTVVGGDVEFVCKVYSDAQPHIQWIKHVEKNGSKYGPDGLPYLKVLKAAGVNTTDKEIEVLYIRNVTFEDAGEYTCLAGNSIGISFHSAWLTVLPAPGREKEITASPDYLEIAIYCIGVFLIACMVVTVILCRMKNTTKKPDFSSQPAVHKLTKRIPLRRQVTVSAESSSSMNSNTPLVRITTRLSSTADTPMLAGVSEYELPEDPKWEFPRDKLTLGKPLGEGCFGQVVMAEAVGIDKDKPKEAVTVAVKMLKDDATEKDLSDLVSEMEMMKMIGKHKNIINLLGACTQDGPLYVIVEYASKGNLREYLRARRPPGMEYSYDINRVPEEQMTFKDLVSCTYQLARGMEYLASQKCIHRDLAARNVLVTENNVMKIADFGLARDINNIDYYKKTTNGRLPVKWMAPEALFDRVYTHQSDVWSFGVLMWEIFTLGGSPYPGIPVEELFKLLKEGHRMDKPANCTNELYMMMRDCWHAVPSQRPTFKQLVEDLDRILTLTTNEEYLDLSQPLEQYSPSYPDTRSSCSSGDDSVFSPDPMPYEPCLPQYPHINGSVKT
Sequence of FGFR4 (P22455 22-802): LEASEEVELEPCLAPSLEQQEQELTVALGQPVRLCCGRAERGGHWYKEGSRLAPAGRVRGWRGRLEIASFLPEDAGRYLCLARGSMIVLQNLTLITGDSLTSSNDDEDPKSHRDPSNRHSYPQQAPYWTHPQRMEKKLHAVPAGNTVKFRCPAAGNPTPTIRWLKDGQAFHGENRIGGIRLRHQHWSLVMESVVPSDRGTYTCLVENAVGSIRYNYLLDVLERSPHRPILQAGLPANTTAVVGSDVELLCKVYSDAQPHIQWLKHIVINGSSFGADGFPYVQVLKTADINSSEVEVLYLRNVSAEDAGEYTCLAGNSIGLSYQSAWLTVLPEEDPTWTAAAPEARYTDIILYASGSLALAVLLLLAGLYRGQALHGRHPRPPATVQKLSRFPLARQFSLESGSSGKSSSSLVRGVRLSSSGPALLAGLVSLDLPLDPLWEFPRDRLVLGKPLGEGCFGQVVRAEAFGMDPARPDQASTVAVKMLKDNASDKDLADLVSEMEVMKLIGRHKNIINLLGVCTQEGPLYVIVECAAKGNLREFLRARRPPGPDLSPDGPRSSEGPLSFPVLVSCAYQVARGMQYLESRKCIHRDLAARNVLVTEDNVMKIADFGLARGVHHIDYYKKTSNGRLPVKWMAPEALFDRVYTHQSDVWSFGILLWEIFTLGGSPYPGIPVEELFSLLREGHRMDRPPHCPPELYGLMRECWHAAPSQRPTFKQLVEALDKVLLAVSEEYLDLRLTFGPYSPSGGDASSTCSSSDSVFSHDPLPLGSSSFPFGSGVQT
Sequence of MST1R (Q04912 25-1400): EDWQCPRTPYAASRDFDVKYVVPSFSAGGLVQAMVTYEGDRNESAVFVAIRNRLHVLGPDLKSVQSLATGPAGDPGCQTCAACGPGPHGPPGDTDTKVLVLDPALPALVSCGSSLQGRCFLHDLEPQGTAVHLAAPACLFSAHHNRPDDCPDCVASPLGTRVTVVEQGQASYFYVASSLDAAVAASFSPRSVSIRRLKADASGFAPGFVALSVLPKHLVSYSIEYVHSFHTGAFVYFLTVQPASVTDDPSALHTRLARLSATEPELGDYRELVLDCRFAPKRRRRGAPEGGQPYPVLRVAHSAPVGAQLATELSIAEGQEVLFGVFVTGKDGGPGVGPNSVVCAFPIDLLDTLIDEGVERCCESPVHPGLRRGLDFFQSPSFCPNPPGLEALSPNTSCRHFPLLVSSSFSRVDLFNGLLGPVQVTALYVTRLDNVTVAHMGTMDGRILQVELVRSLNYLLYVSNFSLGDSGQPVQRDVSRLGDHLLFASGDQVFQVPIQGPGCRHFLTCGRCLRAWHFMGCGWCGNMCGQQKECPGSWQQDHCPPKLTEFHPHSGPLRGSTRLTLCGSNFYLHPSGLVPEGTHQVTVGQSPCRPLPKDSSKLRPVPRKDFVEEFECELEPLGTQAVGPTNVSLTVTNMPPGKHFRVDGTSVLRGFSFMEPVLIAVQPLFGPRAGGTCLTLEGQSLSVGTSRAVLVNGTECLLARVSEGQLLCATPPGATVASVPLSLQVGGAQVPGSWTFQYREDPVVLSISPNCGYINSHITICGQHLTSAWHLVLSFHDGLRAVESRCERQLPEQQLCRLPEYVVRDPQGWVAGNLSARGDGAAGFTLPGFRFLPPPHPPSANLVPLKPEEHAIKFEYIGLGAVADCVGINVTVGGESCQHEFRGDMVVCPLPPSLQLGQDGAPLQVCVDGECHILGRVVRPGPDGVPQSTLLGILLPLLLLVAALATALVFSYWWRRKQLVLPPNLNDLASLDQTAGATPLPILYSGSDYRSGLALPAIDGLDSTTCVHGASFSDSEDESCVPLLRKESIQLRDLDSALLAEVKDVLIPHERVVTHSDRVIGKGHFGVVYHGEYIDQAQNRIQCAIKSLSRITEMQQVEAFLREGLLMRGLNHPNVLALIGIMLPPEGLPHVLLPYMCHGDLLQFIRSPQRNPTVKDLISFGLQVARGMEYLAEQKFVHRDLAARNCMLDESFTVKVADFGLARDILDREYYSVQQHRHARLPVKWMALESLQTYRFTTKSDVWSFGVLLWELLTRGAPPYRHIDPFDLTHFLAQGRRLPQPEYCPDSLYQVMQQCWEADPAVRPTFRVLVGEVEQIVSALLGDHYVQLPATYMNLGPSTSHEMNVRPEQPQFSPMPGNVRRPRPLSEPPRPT

IC50 [1]: 0.00211 ± 0.00014 µM | IC50 [3]: > 10 µM | IC50 [4]: > 10 µM | IC50 [5]: > 10 µM | IC50 [6]: > 10 µM | IC50 [7]: > 10 µM | IC50 [8]: > 10 µM | IC50 [9]: > 10 µM | IC50 [10]: > 10 µM | IC50 [11]: > 10 µM | IC50 [12]: > 10 µM | IC50 [13]: > 10 µM
SMILES: O=S(=O)(c1ccc(C(O)CO)c(C(F)(F)F)c1)N1CCc2cc(C3CC3NCC3CCNCC3)ccc21 (stereo not drawn) [LTM-1]
body weight of mice ([2]; 10 mg/kg intraperitoneal daily, 15 days, versus vehicle group): no significant differences | liver and kidney function indices ([2]; LTM-1 treated MV-4-11 xenografted mice): did not induce significant changes | alanine aminotransferase (ALT) level in mouse serum [2, 14]: no significant changes | aspartate aminotransferase (AST) level in mouse serum [2, 14]: no significant changes | blood urea nitrogen (BUN) level in mouse serum [2, 14]: no significant changes | creatinine (CRE) level in mouse serum [2, 14]: no significant changes
